From US12059400B2, “Medical compound” (VERA SALUS RICERCA S.R.L., priority 2017, dated 2024)

How the values were obtained:
[1] = test system: human skin fibroblasts (WS1); experiment: Cell proliferation of normal cells, crystal violet method; format: cell-based; settings: at the indicated concentrations (not given); FIG. 17
Description: The compound according to the invention, and in particular the synthetic quercetin derivatives described and illustrated herein were investigated in vitro by using human tumour cells and assessing their impact on the tumour proliferative capacity, with regard to the tumours described above. In particular, the following human tumour cell lines were assessed experimentally: 1) HCT116, colon adenocarcinoma cells; 2) H1299, lung adenocarcinoma cells; 3) A375, melanoma cells, and 4) A431, squamous skin cell carcinoma; 5) 786-0, renal carcinoma cells; 6) PC3, prostate carcinoma cells; 7) BT549, mammary carcinoma cells; 8) CAL27, tongue carcinoma cells (belonging to the head-and-neck carcinomas); 9) HepG2, hepatocellular carcinoma cells; 10) PANC-1, pancreas carcinoma cells; 11) T24, bladder carcinoma cells; 12) OVCAR-3, ovarian carcinoma cells. In addition, a normal human cell line, WS1 (skin fibroblasts) was also treated with the novel synthetic compounds. Cell proliferation was quantified by the crystal violet method with a spectrophotometer. In short, after acquiring serial images (0, 24 and 48 hrs) with the EVOS XL Cell Imaging System microscope (Thermo Fisher Scientific), the cells imaged at 48 hrs were fixed with paraformaldehyde (4%) and stained with Crystal Violet (1%). Then, the specific absorbance (λ=590 nm) at 48 hrs was measured with a spectrophotometer (Infinite®200 PRO, Tecan). Data analysis was carried out by using ad-hoc Excel files for graphical representation and statistical processing (t-test). […] This tool allows cell growth to be monitored from electrical impedance-derived quantitative values (the so-called Cell Index) measured by tiny electrodes located at the base of the culture wells. Proliferation is monitored for several days (5-7) by setting a Cell Index per minute measure on the instrument. The data are analysed by processing various parameters calculated by the dedicated software, such as the cell duplication time, the slope and the Max Cell Index.

[2] = test system: human ovarian carcinoma cells (OVCAR-3); experiment: Cell proliferation, crystal violet method; format: cell-based; settings: 60 μM; FIG. 11a, 11b
Description: The compound according to the invention, and in particular the synthetic quercetin derivatives described and illustrated herein were investigated in vitro by using human tumour cells and assessing their impact on the tumour proliferative capacity, with regard to the tumours described above. In particular, the following human tumour cell lines were assessed experimentally: 1) HCT116, colon adenocarcinoma cells; 2) H1299, lung adenocarcinoma cells; 3) A375, melanoma cells, and 4) A431, squamous skin cell carcinoma; 5) 786-0, renal carcinoma cells; 6) PC3, prostate carcinoma cells; 7) BT549, mammary carcinoma cells; 8) CAL27, tongue carcinoma cells (belonging to the head-and-neck carcinomas); 9) HepG2, hepatocellular carcinoma cells; 10) PANC-1, pancreas carcinoma cells; 11) T24, bladder carcinoma cells; 12) OVCAR-3, ovarian carcinoma cells. In addition, a normal human cell line, WS1 (skin fibroblasts) was also treated with the novel synthetic compounds.
Cell proliferation was quantified by the crystal violet method with a spectrophotometer. In short, after acquiring serial images (0, 24 and 48 hrs) with the EVOS XL Cell Imaging System microscope (Thermo Fisher Scientific), the cells imaged at 48 hrs were fixed with paraformaldehyde (4%) and stained with Crystal Violet (1%). Then, the specific absorbance (λ=590 nm) at 48 hrs was measured with a spectrophotometer (Infinite®200 PRO, Tecan). Data analysis was carried out by using ad-hoc Excel files for graphical representation and statistical processing (t-test). Moreover, the results obtained with Crystal Violet were confirmed by using another cell proliferation assessment method based on the real time cellular analyzer XCELLigence RTCA DP (ACEA Biosciences, Inc.). This tool allows cell growth to be monitored from electrical impedance-derived quantitative values (the so-called Cell Index) measured by tiny electrodes located at the base of the culture wells. Proliferation is monitored for several days (5-7) by setting a Cell Index per minute measure on the instrument. The data are analysed by processing various parameters calculated by the dedicated software, such as the cell duplication time, the slope and the Max Cell Index.
Cell proliferation was quantitated spectrophotometrically by the crystal violet method.

[3] = test system: human colon carcinoma cells (HCT116); experiment: Intracellular ROS levels, DCFH2-DA probe; format: cell-based; settings: 2 hrs of treatment; at the respective anti-proliferative IC50s; DCF fluorescence in A.U.; FIG. 22 left
Description: Intracellular ROS levels were measured in tumour cells by using the probe 2,7-dichlorodihydrofluorescein diacetate (DCFH2-DA) and a fluorescence spectrophotometer. DCFH2-DA diffuses readily through the cell membrane into the cytosolic space of the cell where it is hydrolyzed by intracellular esterases into the non-permeable DCFH2 product. DCFH2 oxidation by intracellular ROS (mainly H2O2, HO·, ROO·, NO· and ONOO) results in the production of intracellular fluorescent DCF, whose concentration is directly proportional to the levels of ROS in the cell. […] All the experiments were repeated at least 3 times. Data analysis was carried out with GraphPad Prism 6 for graphical representation and statistical processing (1-way ANOVA test).

SCC cells (A431) = experiment: Cell proliferation, crystal violet method; format: cell-based, human; settings: 90 μM; FIG. 2a, 2b
Description: (§1) The compound according to the invention, and in particular the synthetic quercetin derivatives described and illustrated herein were investigated in vitro by using human tumour cells and assessing their impact on the tumour proliferative capacity, with regard to the tumours described above. In particular, the following human tumour cell lines were assessed experimentally: 1) HCT116, colon adenocarcinoma cells; 2) H1299, lung adenocarcinoma cells; 3) A375, melanoma cells, and 4) A431, squamous skin cell carcinoma; 5) 786-0, renal carcinoma cells; 6) PC3, prostate carcinoma cells; 7) BT549, mammary carcinoma cells; 8) CAL27, tongue carcinoma cells (belonging to the head-and-neck carcinomas); 9) HepG2, hepatocellular carcinoma cells; 10) PANC-1, pancreas carcinoma cells; 11) T24, bladder carcinoma cells; 12) OVCAR-3, ovarian carcinoma cells. In addition, a normal human cell line, WS1 (skin fibroblasts) was also treated with the novel synthetic compounds. Cell proliferation was quantified by the crystal violet method with a spectrophotometer. In short, after acquiring serial images (0, 24 and 48 hrs) with the EVOS XL Cell Imaging System microscope (Thermo Fisher Scientific), the cells imaged at 48 hrs were fixed with paraformaldehyde (4%) and stained with Crystal Violet (1%). Then, the specific absorbance (λ=590 nm) at 48 hrs was measured with a spectrophotometer (Infinite®200 PRO, Tecan). Data analysis was carried out by using ad-hoc Excel files for graphical representation and statistical processing (t-test). Moreover, the results obtained with Crystal Violet were confirmed by using another cell proliferation assessment method based on the real time cellular analyzer XCELLigence RTCA DP (ACEA Biosciences, Inc.). This tool allows cell growth to be monitored from electrical impedance-derived quantitative values (the so-called Cell Index) measured by tiny electrodes located at the base of the culture wells. Proliferation is monitored for several days (5-7) by setting a Cell Index per minute measure on the instrument. The data are analysed by processing various parameters calculated by the dedicated software, such as the cell duplication time, the slope and the Max Cell Index. […] Cell proliferation was quantitated spectrophotometrically by the crystal violet method.

[4] = test system: human melanoma cells (A375); experiment: Cell cycle progression, propidium iodide method, cytofluorimeter; format: cell-based; settings: 24 hrs; at the respective anti-proliferative IC50s; FIG. 19
Description: Progression through the tumour cell cycle was assessed by the propidium iodide method and quantification of the cell DNA content with a cytofluorimeter. Briefly, after treatment (in duplicate) with the test compounds (24 hrs), the tumour cells were washed (with PBS), detached with trypsin-EDTA and pelleted by centrifugation (125 g for 6 min). The cells were then fixed in ethanol (70%) and stored in the freezer (−20° C.) for 1-3 days. After further washing (PBS) and treatment with RNAse (50 ug/ml), the cells were contacted (on ice in the dark; 30 min) with propidium iodide (50 μg/ml). FL2 and FL3 cytofluorimeter readings analysed approximately 50,000 cells (1 μl/second) per sample. Statistical analysis and graphical representation were performed by using t-tests and preset Excel property files.

[5] = test system: human prostate carcinoma cells (PC3); experiment: Cell proliferation, crystal violet method; format: cell-based; settings: 80 μM; FIG. 5a, 5b
Description: as §1

[6] = test system: human bladder carcinoma cells (T24); experiment: Cell proliferation, crystal violet method; format: cell-based; settings: 80 μM; FIG. 10a, 10b
Description: as §1

[7] = test system: human pancreatic carcinoma cells (PANC-1); experiment: Cell proliferation, crystal violet method; format: cell-based; settings: 80 μM; FIG. 9a, 9b
Description: as §1

[8] = test system: human renal carcinoma cells (786-0); experiment: Cell proliferation, crystal violet method; format: cell-based; settings: 80 μM; FIG. 4a, 4b
Description: as §1

Row | SMILES | proliferation of normal human skin fibroblasts (WS1) vs vehicle control [1] | OVCAR-3 cell growth vs vehicle control [2] | intracellular ROS levels in HCT116 cells [3] | A431 cell growth vs vehicle control (SCC cells (A431)) | halt of A375 tumour cells in S and/or G2 of the cell cycle [4] | PC3 cell growth vs vehicle control [5] | T24 cell growth vs vehicle control [6] | PANC-1 cell growth vs vehicle control [7] | 786-0 cell growth vs vehicle control [8]
1 | O=c1cc(-c2ccc(O)cc2)oc2cc(O)cc(O)c12 [apigenin] | significantly inhibits | – | – | – | – | – | – | – | –
2 | O=c1c(O)c(-c2ccc(O)c(O)c2)oc2cc(O)cc(O)c12 [quercetin, Quercetin, reference compound] | do not disrupt | has no effect | has no effect | has no effect | significantly halt | modest anti-proliferative effects | has no effect | has no effect | has no effect
